One block for each molecule: values may come before it.
Columns and labels:
Abl = biological target: T1, Abl (Homo sapiens, UniProt P00519); experiment: Abl enzymatic assay (ADP-Glo kinase assay); type: biochemical
T1 construct: purchased Merck-Millipore
Procedure: (§1) Src, Fyn, and Abl were purchased from Merck-Millipore. Reactions were performed according to the manufacturer’s instructions with minor modifications. All substrates were used at least at twice the concentration of apparent Km. In detail: Src reactions were performed using 500 μM Src-peptide (KVEKIGEGTYGVVYK), 100 μM ATP, and 0.00087% NP-40; Fyn reactions were performed using 360 μM Src-peptide (KVEKIGEGTYGVVYK), 200 μM ATP, and 0.0026% NP-40; Abl reactions were performed using 50 μM abltide (EAIYAAPFAKKK), 30 μM ATP, and 0.00087% NP-40. All reactions were performed using 10–50 ng of enzyme and 10% DMSO in 10 μL of kinase buffer (8 mM MOPS-NaOH pH7.0, 0.2 mM EDTA, 10 mM MgAc) at 30 °C for 10 min.
(§2) To avoid peptide adsorbing to the plastic surface, protein low-binding tubes were used. ADP-Glo kinase assay (Promega) was then used to detect kinase activity according to the manufacturer’s instructions with minor modifications. In detail, reactions were transferred to white 384 well-plates and stopped by adding 10 µL of ADP-Glo reagent (Promega) for 50 min at room temperature. A total of 20 μL of detection reagent (Promega) was then added for 30 min and the reaction read using a GloMax Discover microplate reader (Promega). Data were plotted using GraphPad Prism 5.0. IC50 values were obtained according to Equation (1):v = V/{1 + (I/IC50)} (1) where v is the measured reaction velocity, V is the apparent maximal velocity in the absence of inhibitor, I is the inhibitor concentration, and IC50 is the 50% inhibitory dose. Compounds tested were assumed to act as fully ATP-competitive inhibitors. Therefore, Ki values were calculated according to Equation (2):Ki = IC50/(1+ […]) (2) where Ki is the affinity of the inhibitor to the enzyme, S is the ATP concentration, and Km is the affinity of ATP calculated according to the Michaelis–Menten equation.

Src = biological target: T2, Src (Homo sapiens, UniProt P12931); experiment: Src enzymatic assay (ADP-Glo kinase assay); type: biochemical; details: for Ki: mean of at least three experiments, 100 μM ATP
T2 construct: purchased Merck-Millipore
T2 sequence (P12931 whole entry, species assumed): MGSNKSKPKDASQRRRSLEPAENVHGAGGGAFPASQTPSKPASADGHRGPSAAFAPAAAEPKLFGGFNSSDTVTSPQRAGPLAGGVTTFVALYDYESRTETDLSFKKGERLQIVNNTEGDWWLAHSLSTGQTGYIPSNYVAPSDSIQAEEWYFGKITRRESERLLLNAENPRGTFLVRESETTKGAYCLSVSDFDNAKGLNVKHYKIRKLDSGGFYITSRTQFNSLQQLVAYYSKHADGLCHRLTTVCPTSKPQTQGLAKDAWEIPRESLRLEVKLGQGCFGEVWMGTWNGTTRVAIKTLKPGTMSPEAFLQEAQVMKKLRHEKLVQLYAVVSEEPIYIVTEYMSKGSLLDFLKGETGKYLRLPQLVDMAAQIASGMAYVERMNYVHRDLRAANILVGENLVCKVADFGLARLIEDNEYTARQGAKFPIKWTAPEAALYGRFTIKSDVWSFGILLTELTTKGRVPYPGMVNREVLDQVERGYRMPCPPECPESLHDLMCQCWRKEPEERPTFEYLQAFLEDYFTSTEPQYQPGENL
Procedure: as §1, §2

Fyn = biological target: T3, Fyn (Homo sapiens, UniProt P06241); experiment: Fyn enzymatic assay (ADP-Glo kinase assay); type: biochemical; details: for Ki: mean of at least three experiments, 200 μM ATP
T3 construct: purchased Merck-Millipore
T3 sequence (P06241 whole entry, species assumed): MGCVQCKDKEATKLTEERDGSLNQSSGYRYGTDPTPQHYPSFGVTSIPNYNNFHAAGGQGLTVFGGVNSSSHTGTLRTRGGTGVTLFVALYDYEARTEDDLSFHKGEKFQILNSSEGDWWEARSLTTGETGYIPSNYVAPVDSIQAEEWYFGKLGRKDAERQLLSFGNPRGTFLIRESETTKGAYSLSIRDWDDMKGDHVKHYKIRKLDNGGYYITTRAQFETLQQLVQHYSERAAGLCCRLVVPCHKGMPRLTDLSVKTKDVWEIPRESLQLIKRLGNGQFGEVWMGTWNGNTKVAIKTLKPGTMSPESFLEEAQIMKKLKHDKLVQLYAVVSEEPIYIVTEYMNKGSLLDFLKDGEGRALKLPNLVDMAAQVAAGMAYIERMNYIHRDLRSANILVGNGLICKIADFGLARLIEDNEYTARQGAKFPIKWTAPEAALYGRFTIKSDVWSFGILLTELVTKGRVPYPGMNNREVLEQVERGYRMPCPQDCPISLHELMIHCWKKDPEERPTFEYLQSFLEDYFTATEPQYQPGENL
Procedure: as §1, §2

T1 sequence (P00519 whole entry, species assumed): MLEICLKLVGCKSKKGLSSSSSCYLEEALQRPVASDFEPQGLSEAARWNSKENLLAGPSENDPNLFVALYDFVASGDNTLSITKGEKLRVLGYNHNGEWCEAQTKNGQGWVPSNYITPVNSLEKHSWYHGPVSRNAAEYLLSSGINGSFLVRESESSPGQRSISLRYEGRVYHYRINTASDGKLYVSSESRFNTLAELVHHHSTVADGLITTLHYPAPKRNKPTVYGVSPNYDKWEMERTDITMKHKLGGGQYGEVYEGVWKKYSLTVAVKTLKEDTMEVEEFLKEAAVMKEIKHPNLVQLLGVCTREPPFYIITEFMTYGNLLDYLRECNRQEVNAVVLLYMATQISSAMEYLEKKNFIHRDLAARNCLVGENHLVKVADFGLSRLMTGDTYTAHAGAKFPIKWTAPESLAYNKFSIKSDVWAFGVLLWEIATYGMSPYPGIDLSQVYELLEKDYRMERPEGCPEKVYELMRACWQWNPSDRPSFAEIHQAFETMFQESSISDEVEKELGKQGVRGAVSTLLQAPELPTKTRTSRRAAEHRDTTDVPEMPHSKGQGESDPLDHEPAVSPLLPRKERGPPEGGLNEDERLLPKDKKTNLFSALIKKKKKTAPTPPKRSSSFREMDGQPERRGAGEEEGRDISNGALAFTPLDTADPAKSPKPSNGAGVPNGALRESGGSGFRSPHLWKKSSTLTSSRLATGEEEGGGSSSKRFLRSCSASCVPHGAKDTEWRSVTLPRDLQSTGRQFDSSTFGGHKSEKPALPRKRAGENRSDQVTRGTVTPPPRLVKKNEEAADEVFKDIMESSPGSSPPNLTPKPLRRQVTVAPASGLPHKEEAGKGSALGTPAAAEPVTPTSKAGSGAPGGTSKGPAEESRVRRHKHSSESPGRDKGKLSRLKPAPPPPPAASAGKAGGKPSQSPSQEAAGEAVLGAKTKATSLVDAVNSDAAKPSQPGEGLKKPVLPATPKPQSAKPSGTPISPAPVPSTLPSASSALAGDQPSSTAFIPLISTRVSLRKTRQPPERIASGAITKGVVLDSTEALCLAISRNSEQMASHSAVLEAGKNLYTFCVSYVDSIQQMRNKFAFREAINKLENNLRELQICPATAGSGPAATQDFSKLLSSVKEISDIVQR

SMILES: Clc1ccccc1Nc1nc(SCCN2CCOCC2)nc2c1cnn2CC(Cl)c1ccccc1 (centres unmarked) [2e, 1-(2-Chloro-2-phenylethyl)-N-(2-chlorophenyl)-6-((2-morpholinoethyl)thio)-1H-pyrazolo[3,4-d]pyrimidin-4-amine]
melting point: 117 to 118 °C | inhibition at 10 µM (Abl): 26.3%

SMILES: Cl.Oc1cc(Nc2nc(SCCN3CCOCC3)nc3c2cnn3CC(Cl)c2ccccc2)ccc1F (centres unmarked) [2f, 5-({1-(2-Chloro-2-phenylethyl)-6-[(2-morpholinoethyl)thio]-1H-pyrazolo[3,4-d]pyrimidin-4-yl)amino)-2-fluorophenol hydrochloride]
melting point: 238 to 239 °C | inhibition at 1 µM (Abl): 3% | inhibition at 10 µM (Abl): 67% | inhibition at 10 µM (Src): 79%

SMILES: Oc1cc(Nc2nc(SCCN3CCOCC3)nc3c2cnn3CC(Cl)c2ccccc2)c(F)cc1F (centres unmarked) [2g, 5-((1-(2-Chloro-2-phenylethyl)-6-((2-morpholinoethyl)thio)-1H-pyrazolo[3,4-d]pyrimidin-4-yl)amino)-2,4-difluorophenol]
melting point: 146 to 149 °C | inhibition at 1 µM (Abl): 33.5% | inhibition at 10 µM (Abl): 83% | inhibition at 1 µM (Src): 43.3% | inhibition at 10 µM (Src): 93.6%

SMILES: CCc1nc(Nc2ccccc2)c2cnn(CC(Cl)c3ccccc3)c2n1 (centres unmarked) [2h, 1-(2-Chloro-2-phenylethyl)-6-ethyl-N-phenyl-1H-pyrazolo[3,4-d]pyrimidin-4-amine]
melting point: 174 to 176 °C | inhibition at 1 µM (Abl): 34% | inhibition at 10 µM (Src): 12% | inhibition at 100 µM (Src): 98.3% | inhibition at 10 µM (Fyn): 57% | inhibition at 100 µM (Fyn): 82% | Ki (Fyn): 10.3 ± 3.13 µM

SMILES: ClC(Cn1ncc2c(Nc3ccccc3)nc(C3CCCCC3)nc21)c1ccccc1 (centres unmarked) [2j, 1-(2-Chloro-2-phenylethyl)-6-cyclohexyl-N-phenyl-1H-pyrazolo[3,4-d]pyrimidin-4-amine]
melting point: 134 to 136 °C | inhibition at 1 µM (Abl): 39% | inhibition at 10 µM (Src): 5% | inhibition at 100 µM (Src): 95.3% | inhibition at 10 µM (Fyn): 13% | inhibition at 100 µM (Fyn): 38%

SMILES: FC(F)(F)c1nc(Nc2ccccc2)c2cnn(CC(Cl)c3ccccc3)c2n1 (centres unmarked) [2k, 1-(2-Chloro-2-phenylethyl)-N-phenyl-6-(trifluoromethyl)-1H-pyrazolo[3,4-d]pyrimidin-4-amine]
melting point: 139 to 141 °C | inhibition at 10 µM (Abl): 39% | inhibition at 10 µM (Src): 50.3% | inhibition at 100 µM (Src): 99.2% | inhibition at 10 µM (Fyn): 47% | inhibition at 100 µM (Fyn): 66% | Ki (Fyn): 3.79 ± 1.01 µM

SMILES: Fc1cccc(Nc2nc(C(F)(F)F)nc3c2cnn3CC(Cl)c2ccccc2)c1 (centres unmarked) [2l, 1-(2-Chloro-2-phenylethyl)-N-(3-fluorophenyl)-6-(trifluoromethyl)-1H-pyrazolo[3,4-d]pyrimidin-4-amine]
melting point: 164 to 166 °C | inhibition at 1 µM (Abl): 40% | inhibition at 1 µM (Fyn): 19% | inhibition at 10 µM (Fyn): 10%

SMILES: ClC(Cn1ncc2c(Nc3ccccc3)nc(-c3ccccc3)nc21)c1ccccc1 (centres unmarked) [2n, 1-(2-Chloro-2-phenylethyl)-N,6-diphenyl-1H-pyrazolo[3,4-d]pyrimidin-4-amine]
melting point: 130 to 140 °C (dec.) | inhibition at 1 µM (Abl): 5% | inhibition at 10 µM (Abl): 18% | inhibition at 1 µM (Src): 11% | inhibition at 10 µM (Src): 13% | inhibition at 1 µM (Fyn): 16% | inhibition at 10 µM (Fyn): 23%

SMILES: CSc1nc(Nc2ccccc2)c2cnn(CC(Cl)c3ccc(F)cc3)c2n1 (centres unmarked) [2p, 1-(2-Chloro-2-(4-fluorophenyl)ethyl)-6-(methylthio)-N-phenyl-1H-pyrazolo[3,4-d]pyrimidin-4-amine]
melting point: 227 to 230 °C | inhibition at 10 µM (Abl): 12% | inhibition at 1 µM (Src): 14% | inhibition at 10 µM (Src): 55% | Ki (Src): 14.4 ± 4.4 µM | inhibition at 1 µM (Fyn): 15% | inhibition at 10 µM (Fyn): 60% | Ki (Fyn): 2.68 ± 0.37 µM

SMILES: Cc1nc(Nc2ccccc2)c2cnn(CC(Cl)c3ccc(Cl)cc3)c2n1 (centres unmarked) [2q, 1-(2-Chloro-2-(4-chlorophenyl)ethyl)-6-methyl-N-phenyl-1H-pyrazolo[3,4-d]pyrimidin-4-amine]
melting point: 202 to 203 °C | inhibition at 1 µM (Abl): 20% | inhibition at 10 µM (Abl): 25% | inhibition at 1 µM (Src): 29% | inhibition at 10 µM (Src): 48% | Ki (Src): 16.5 ± 4 µM | inhibition at 1 µM (Fyn): 24% | inhibition at 10 µM (Fyn): 78% | Ki (Fyn): 2.07 ± 1.1 µM

SMILES: CCc1nc(Nc2ccccc2)c2cnn(CC(Cl)c3ccc(Cl)cc3)c2n1 (centres unmarked) [2r, 1-(2-Chloro-2-(4-chlorophenyl)ethyl)-6-ethyl-N-phenyl-1H-pyrazolo[3,4-d]pyrimidin-4-amine]
melting point: 193 to 195 °C | inhibition at 10 µM (Src): 7.5% | inhibition at 1 µM (Fyn): 48% | inhibition at 10 µM (Fyn): 75% | Ki (Fyn): 1.74 ± 0.71 µM

SMILES: CCCc1nc(Nc2ccccc2)c2cnn(CC(Cl)c3ccc(Cl)cc3)c2n1 (centres unmarked) [2s, 1-(2-Chloro-2-(4-chlorophenyl)ethyl)-N-phenyl-6-propyl-1H-pyrazolo[3,4-d]pyrimidin-4-amine]
melting point: 154 to 156 °C | Ki (Fyn): 10.2 ± 2.11 µM

The next lines start with the values.

Activity towards Bcr-Abl in cell-free assay (in words) (Abl): inactive | inhibition at 10 µM (Abl): 23% | Activity towards Src in cell-free assay (in words) (Src): inactive | inhibition at 1 µM (Src): 24%
SMILES: CSc1nc(Nc2ccc(Cl)cc2)c2cnn(CC(Cl)c3ccccc3)c2n1 (centres unmarked) [2b, 1-(2-Chloro-2-phenylethyl)-N-(4-chlorophenyl)-6-(methylthio)-1H-pyrazolo[3,4-d]pyrimidin-4-amine]

melting point: 128 to 131 °C | inhibition at 1 µM (Abl): 18% | inhibition at 10 µM (Abl): 35% | inhibition at 1 µM (Src): 16% | inhibition at 10 µM (Src): 27% | inhibition at 1 µM (Fyn): 33% | inhibition at 10 µM (Fyn): 64%
SMILES: CCSc1nc(Nc2ccccc2)c2cnn(CC(Cl)c3ccccc3)c2n1 (centres unmarked) [2c, 1-(2-Chloro-2-phenylethyl)-6-(ethylthio)-N-phenyl-1H-pyrazolo[3,4-d]pyrimidin-4-amine]

inhibition at 10 µM (Abl): 24% | inhibition at 10 µM (Src): 34% | inhibition at 100 µM (Src): 99.5% | inhibition at 10 µM (Fyn): 8% | inhibition at 100 µM (Fyn): 26%
SMILES: CC(C)Sc1nc(Nc2cccc(Cl)c2)c2cnn(CC(Cl)c3ccccc3)c2n1 (centres unmarked) [2d, 1-(2-Chloro-2-phenylethyl)-N-(3-chlorophenyl)-6-(isopropylthio)-1H-pyrazolo[3,4-d]pyrimidin-4-amine]

melting point: 189 to 190 °C | inhibition at 10 µM (Src): 56% | inhibition at 100 µM (Src): 98.8% | inhibition at 10 µM (Fyn): 15% | inhibition at 100 µM (Fyn): 19%
SMILES: Clc1cccc(Nc2nc(C3CCCC3)nc3c2cnn3CC(Cl)c2ccccc2)c1 (centres unmarked) [2i, 1-(2-Chloro-2-phenylethyl)-N-(3-chlorophenyl)-6-cyclopentyl-1H-pyrazolo[3,4-d]pyrimidin-4-amine]

melting point: 88 to 90 °C | inhibition at 1 µM (Abl): 15% | inhibition at 10 µM (Abl): 18% | inhibition at 10 µM (Src): 67% | inhibition at 1 µM (Fyn): 2.5% | inhibition at 10 µM (Fyn): 20%
SMILES: FC(F)(F)c1nc(Nc2cccc(Cl)c2)c2cnn(CC(Cl)c3ccccc3)c2n1 (centres unmarked) [2m, N-(3-Chlorophenyl)-1-(2-chloro-2-phenylethyl)-6-trifluoromethyl-1H-pyrazolo[3,4-d]pyrimidin-4-amine]

melting point: 82 to 84 °C | inhibition at 10 µM (Fyn): 8%
SMILES: Clc1cccc(Nc2nc(-c3ccccc3)nc3c2cnn3CC(Cl)c2ccccc2)c1 (centres unmarked) [2o, 1-(2-Chloro-2-phenylethyl)-N-(3-chlorophenyl)-6-phenyl-1H-pyrazolo[3,4-d]pyrimidin-4-amine]
